Results taken from US8247211B2, “Glycopeptide antibiotics” (American Cyanamid Company, priority 2001, dated 2012).
In brackets after ≈: the same amount, converted by molar mass.

Key:
Assay in all cases: In vitro antibacterial evaluation: minimum inhibitory concentration (MIC), broth dilution method
Type in all cases: cell-based
Enterococcus sp. = test system: Enterococcus sp.
In short: (§1)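 Broth dilution per NCCLS M7-A2 in Muller-Hinton II […], inoculum 5×10^5 CFU/mL, antibiotic tested over 64-0.06 μg/mL. MIC is taken as the lowest concentration that inhibits growth. Panel includes recent clinical isolates resistant to methicillin, penicillin and/or vancomycin.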

Streptococcus sp. = test system: Streptococcus sp.
In short: as §1

Escherichia coli = test system: Escherichia coli
In short: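 Following NCCLS approved standard M7-A2, compounds are serially diluted from 64 to 0.06 μg/mL in Muller-Hinton II […] and inoculated at 5×10^5 CFU/mL; the MIC is the minimum concentration at which growth is inhibited.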

Staphylococcus sp. = settings: broth dilution, 18 hours at 35° C.
In short: as §1

[1] = broth dilution, inoculum 5×10^5 CFU/mL, 18 hours at 35° C.

COc1cc(C2OCC3OC(OC4C(CO)OC(Oc5ccc(CC6NC(=O)C(C(C)c7ccccc7)NC(=O)CNC(=O)C(CO)NC(=O)C(C(O)C7CNC(=N)N7C7OC(CO)C(O)C(O)C7O)NC(=O)C(C(O)C7CNC(=N)N7)NC6=O)cc5)C(O)C4O)C(O)C(O)C3O2)cc([N+](=O)[O-])c1O (stereo not drawn) [Example 169, Cyclo[glycyl-β-methylphenylalanyl-O-[4-O-[4,6-O-(4-hydroxy-3-methoxy-4-nitro-benzylidene)hexopyranosyl]hexopyranosyl]tyrosyl-3-(2-iminoimidazolidin-4-yl)seryl-3-(3-hexopyranosyl-2-iminoimidazolidin-4-yl)serylseryl]]
MIC Enterococcus avium (GC 4558) (Enterococcus sp.; [1]): >64 µg/mL
MIC Enterococcus faecalis (ATCC 29212) (Enterococcus sp.; [1]): >64 µg/mL
MIC Enterococcus faecalis (GC 2242) (Enterococcus sp.; [1]): >64 µg/mL
MIC Enterococcus faecalis (GC 2691) (Enterococcus sp.; [1]): >64 µg/mL
MIC Enterococcus faecalis (GC 3059) (Enterococcus sp.; [1]): >64 µg/mL
MIC Enterococcus faecalis (GC 4552) (Enterococcus sp.; [1]): >64 µg/mL
MIC Enterococcus faecalis (GC 4553) (Enterococcus sp.; [1]): >64 µg/mL
MIC Enterococcus faecalis (GC 4554) (Enterococcus sp.; [1]): >64 µg/mL
MIC Enterococcus faecalis (GC 6189) (Enterococcus sp.; [1]): >64 µg/mL
MIC Enterococcus faecium (GC 2243) (Enterococcus sp.; [1]): >64 µg/mL
MIC Enterococcus faecium (GC 4556) (Enterococcus sp.; [1]): >64 µg/mL
MIC Enterococcus faecium (GC 4557) (Enterococcus sp.; [1]): 32 µg/mL (≈ 21.7 µM)
MIC Enterococcus faecalis (ATCC 29212) (Enterococcus sp.; strain ATCC 29212): >64 µg/mL
MIC Enterococcus faecalis (GC 2242) (Enterococcus sp.; strain GC 2242): >64 µg/mL
MIC Enterococcus faecium (GC 2243) (Enterococcus sp.; strain GC 2243): >64 µg/mL
MIC Enterococcus faecalis (GC 2691) (Enterococcus sp.; strain GC 2691): >64 µg/mL
MIC Enterococcus faecalis (GC 3059) (Enterococcus sp.; strain GC 3059): >64 µg/mL
MIC Enterococcus faecalis (GC 4552) (Enterococcus sp.; strain GC 4552): >64 µg/mL
MIC Enterococcus faecalis (GC 4553) (Enterococcus sp.; strain GC 4553): >64 µg/mL
MIC Enterococcus faecalis (GC 4554) (Enterococcus sp.; strain GC 4554): >64 µg/mL
MIC Enterococcus faecium (GC 4556) (Enterococcus sp.; strain GC 4556): >64 µg/mL
MIC Enterococcus faecium (GC 4557) (Enterococcus sp.; strain GC 4557): 32 µg/mL (≈ 21.7 µM)
MIC Enterococcus avium (GC 4558) (Enterococcus sp.; strain GC 4558): >64 µg/mL
MIC Enterococcus faecalis (GC 6189) (Enterococcus sp.; strain GC 6189): >64 µg/mL
MIC Streptococcus agalactiae (GC 4564) (Streptococcus sp.; [1]): 32 µg/mL (≈ 21.7 µM)
MIC Streptococcus pneumoniae (ATCC 6301) (Streptococcus sp.; [1]): 8 µg/mL (≈ 5.43 µM)
MIC Streptococcus pneumoniae (GC 1894) (Streptococcus sp.; [1]): 8 µg/mL (≈ 5.43 µM)
MIC Streptococcus pneumoniae (GC 4565) (Streptococcus sp.; [1]): 8 µg/mL (≈ 5.43 µM)
MIC Streptococcus pyogenes (GC 4563) (Streptococcus sp.; [1]): 16 µg/mL (≈ 10.9 µM)
MIC Streptococcus pneumoniae (ATCC 6301) (Streptococcus sp.; strain ATCC 6301): 8 µg/mL (≈ 5.43 µM)
MIC Streptococcus pneumoniae (GC 1894) (Streptococcus sp.; strain GC 1894): 8 µg/mL (≈ 5.43 µM)
MIC Streptococcus pyogenes (GC 4563) (Streptococcus sp.; strain GC 4563): 16 µg/mL (≈ 10.9 µM)
MIC Streptococcus agalactiae (GC 4564) (Streptococcus sp.; strain GC 4564): 32 µg/mL (≈ 21.7 µM)
MIC Streptococcus pneumoniae (GC 4565) (Streptococcus sp.; strain GC 4565): 8 µg/mL (≈ 5.43 µM)
MIC Escherichia coli (ATCC 25922) (Escherichia coli; strain ATCC 25922): >64 µg/mL
MIC Escherichia coli (GC 4559) (Escherichia coli; strain GC 4559): >64 µg/mL
MIC Escherichi coli (GC 4560) (Escherichia coli; strain GC 4560): 8 µg/mL (≈ 5.43 µM)
MIC Coagulase Negative Staphylococcus (GC 4547) (Staphylococcus sp.; 5×10^5 CFU/mL): 32 µg/mL (≈ 21.7 µM)
MIC Coagulase Negative Staphylococcus (GC 4548) (Staphylococcus sp.; 5×10^5 CFU/mL): 32 µg/mL (≈ 21.7 µM)
MIC Coagulase Negative Staphylococcus (GC 4549) (Staphylococcus sp.; 5×10^5 CFU/mL): 16 µg/mL (≈ 10.9 µM)
MIC Coagulase Negative Staphylococcus (GC 4551) (Staphylococcus sp.; 5×10^5 CFU/mL): >64 µg/mL
MIC Coagulase Negative Staphylococcus (GC 6257) (Staphylococcus sp.; 5×10^5 CFU/mL): 8 µg/mL (≈ 5.43 µM)
MIC Staphylococcus aureus (ATCC 29213) (Staphylococcus sp.; 5×10^5 CFU/mL): 32 µg/mL (≈ 21.7 µM)
MIC Staphylococcus aureus (GC 1131) (Staphylococcus sp.; 5×10^5 CFU/mL): 32 µg/mL (≈ 21.7 µM)
MIC Staphylococcus aureus (GC 3051) (Staphylococcus sp.; 5×10^5 CFU/mL): 32 µg/mL (≈ 21.7 µM)
MIC Staphylococcus aureus (GC 3053) (Staphylococcus sp.; 5×10^5 CFU/mL): >64 µg/mL
MIC Staphylococcus aureus (GC 4541) (Staphylococcus sp.; 5×10^5 CFU/mL): 32 µg/mL (≈ 21.7 µM)
MIC Staphylococcus aureus (GC 4542) (Staphylococcus sp.; 5×10^5 CFU/mL): 32 µg/mL (≈ 21.7 µM)
MIC Staphylococcus aureus (GC 4544) (Staphylococcus sp.; 5×10^5 CFU/mL): 32 µg/mL (≈ 21.7 µM)
MIC Staphylococcus aureus (GC 4545) (Staphylococcus sp.; 5×10^5 CFU/mL): 32 µg/mL (≈ 21.7 µM)
MIC Staphylococcus aureus-SMITH (GC 4543) (Staphylococcus sp.; 5×10^5 CFU/mL): 32 µg/mL (≈ 21.7 µM)
MIC Staphylococcus haemolyticus (GC 4546) (Staphylococcus sp.; 5×10^5 CFU/mL): 32 µg/mL (≈ 21.7 µM)
MIC Staphylococcus aureus (ATCC 29213) (Staphylococcus sp.; strain ATCC 29213): 32 µg/mL (≈ 21.7 µM)
MIC Staphylococcus aureus (GC 1131) (Staphylococcus sp.; strain GC 1131): 32 µg/mL (≈ 21.7 µM)
MIC Staphylococcus aureus (GC 3051) (Staphylococcus sp.; strain GC 3051): 32 µg/mL (≈ 21.7 µM)
MIC Staphylococcus aureus (GC 3053) (Staphylococcus sp.; strain GC 3053): >64 µg/mL
MIC Staphylococcus aureus (GC 4541) (Staphylococcus sp.; strain GC 4541): 32 µg/mL (≈ 21.7 µM)
MIC Staphylococcus aureus (GC 4542) (Staphylococcus sp.; strain GC 4542): 32 µg/mL (≈ 21.7 µM)
MIC Staphylococcus aureus (GC 4544) (Staphylococcus sp.; strain GC 4544): 32 µg/mL (≈ 21.7 µM)
MIC Staphylococcus aureus (GC 4545) (Staphylococcus sp.; strain GC 4545): 32 µg/mL (≈ 21.7 µM)
